Earlier results, collected in US4407746A, “Cyclohexyl and phenyl substituted enkephalins” (G. D. Searle & Co., priority 1981, dated 1983).

How the values were obtained:
rat = conditions: injected directly into the brain of the rat; Belluzi et al. 1976
[1] = test system: brain opiate receptor sites; conditions: partially purified brain opiate receptor sites; Bradberry et al. 1976

For methionine enkephalin, the analgesic activity (rat) is given as “weak, fleeting analgesic activity” and the “binding to brain opiate receptor sites” value [1] is given as “binds sterospecifically”.
